What was measured:
[1] = in vivo; set-up: species or system cats; settings: sc, 0.025 mg/kg
Method: After subcutaneous administration to cats, plasma was collected and the drug concentration in plasma was determined to illustrate the in vivo pharmacokinetic properties of the compound according to the present invention. […] The blood samples were stored on wet ice and centrifuged (1500-1600 g, 2-8°C, for 10 minutes) within 0.5 hours to obtain plasma, with at least 100 µL of plasma required for each sample. The plasma was then frozen and stored at -90°C to -60°C for subsequent analysis and detection. 30.0 µL of thawed plasma sample were taken, and 300 µL of acetonitrile solution containing an internal standard was added to precipitate the proteins. The mixture was vortexed for 1 minute and then centrifuged at 13,000 rpm for 5 minutes. 165 µL of the supernatant were transferred to a 96-well plate for LC-MS/MS analysis to determine the drug concentration in the plasma. Based on the drug concentration in plasma of the compound in the cats, the pharmacokinetic parameters were calculated by applying the software Winnolin 8.3 in a non-compartmental model. Table 12 Average pharmacokinetic parameters after single subcutaneous administration in cats

[2] = target: T1, human GIPR (Homo sapiens, UniProt P48546); assay: Agonistic activity on GIPR of different species (LANCE Ultra cAMP assay): human; type: cell-based; settings: ratio of EC50 value of other species to human EC50 value
T1 construct: expressed in transfected cells
T1 sequence (P48546 22-466): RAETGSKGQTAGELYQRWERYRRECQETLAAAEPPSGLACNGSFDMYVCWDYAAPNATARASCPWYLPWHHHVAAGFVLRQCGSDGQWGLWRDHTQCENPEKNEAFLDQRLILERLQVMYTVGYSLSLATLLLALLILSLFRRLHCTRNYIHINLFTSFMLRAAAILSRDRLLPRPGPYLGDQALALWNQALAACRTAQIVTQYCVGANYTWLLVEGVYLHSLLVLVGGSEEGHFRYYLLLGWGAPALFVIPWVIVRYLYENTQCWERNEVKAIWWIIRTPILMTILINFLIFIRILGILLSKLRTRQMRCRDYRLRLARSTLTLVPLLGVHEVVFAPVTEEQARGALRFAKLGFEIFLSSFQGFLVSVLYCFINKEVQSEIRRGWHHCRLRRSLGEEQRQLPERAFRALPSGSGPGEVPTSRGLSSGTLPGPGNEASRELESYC
Method: CHO-K1 cells were seeded in a 6-well plate at 0.6×10^6 cells/well and incubated overnight in an incubator at a temperature of 37 °C and a carbon dioxide concentration of 5%. The next day, CHO-K1 cell media were replaced. Then two tubes A and B were prepared for each plasmid. 100 µL Opti-MEM was added to tube A, then 4 µL Lipofectamine™ 3000 was added and mixed uniformly. 100 µL Opti-MEM was firstly added to tube B, then 2 µg of one of the plasmids (human GIPR-pcDNA5 (+) plasmid, dog GIPR-pcDNA5 (+) plasmid, mouse GIPR-pcDNA5 (+) plasmid, rat GIPR-pcDNA5 (+) plasmid, rabbit GIPR-pcDNA5 (+) plasmid, monkey GIPR-pcDNA5 (+) plasmid) was added and mixed uniformly, and 4 µL P3000™ was added to tube B and mixed uniformly (the ratio of plasmid to transfection reagent was 1 µg: 2 µL). […]
18-20 hours after transfection, human GIPR-CHO, dog GIPR-CHO, mouse GIPR-CHO, rat GIPR-CHO, rabbit GIPR-CHO, and monkey GIPR-CHO cells were resuspended in 1×Casein Stimulation Buffer (HBSS, 5 mM HEPES, 0.5 mM IBMX, 0.1% casein, pH7.4), and seeded into a 384-well cell culture plate at 9 µL/well (cell numbers being 1000, 2000, 2000, 2000, 2000, 2000 cells/well, respectively). […] The readings at 665 nm and 620 nm were determined with a 330 nm excitation light on a microplate reader. The 665 nm/620 nm reading ratio was calculated. […]

In the case of `CC[C@H](C)[C@H](NC(=O)C(C)(C)NC(=O)[C@H](Cc1ccc(O)cc1)NC(=O)[C@H](CC(=O)O)NC(=O)[C@H](CO)NC(=O)[C@@H](NC(=O)C(C)(Cc1ccccc1)NC(=O)[C@@H](NC(=O)CNC(=O)[C@H](CCC(=O)O)NC(=O)C(C)(C)NC(=O)[C@@H](N)Cc1ccc(O)cc1)[C@@H](C)O)[C@@H](C)O)C(=O)NC(C)(C)C(=O)N[C@@H](CC(C)C)C(=O)N[C@@H](CC(=O)O)C(=O)N[C@@H](CCCCN)C(=O)N[C@@H](CCC(N)=O)C(=O)N[C@@H](C)C(=O)N[C@@H](CCC(N)=O)C(=O)N[C@@H](C)C(=O)N[C@@H](CCC(=O)O)C(=O)N[C@@H](Cc1ccccc1)C(=O)N[C@H](C(=O)N[C@@H](CCCCNC(=O)COCCOCCNC(=O)COCCOCCNC(=O)COCCOCCNC(=O)CC[C@H](NC(=O)CCCCCCCCCCCCCCCCCCCCC(=O)O)C(=O)O)C(=O)N[C@@H](Cc1c[nH]c2ccccc12)C(=O)N[C@@H](CC(C)C)C(=O)N[C@@H](CC(C)C)C(=O)N[C@@H](CCCCN)C(=O)NCC(=O)NCC(=O)N1CCC[C@H]1C(=O)N[C@@H](CO)C(=O)N[C@@H](CO)C(=O)NCC(=O)N[C@@H](C)C(=O)N1CCC[C@H]1C(=O)N1CCC[C@H]1C(=O)N1CCC[C@H]1C(=O)N[C@@H](CO)C(=O)N[C@@H](CCCCN)C(N)=O)C(C)C` (stereo partly shown) [Compound P016], the AUC(0-inf) ([1]; both sexes, cat) is reported as 11200 ng·h/mL, the AUC(0-t) ([1]; both sexes, cat) is reported as 9260 ng·h/mL and the Cmax ([1]; both sexes, cat) is reported as 123 ng/mL. It also gave a Tmax ([1]; both sexes, cat) of 24 h, a half-life ([1]; both sexes, cat) of 37.4 h and an MRT ([1]; both sexes, cat, MRT0-t) of 54.4 h. The MRT ([1]; both sexes, cat, MRT0-∞) was 61.6 h, the AUC(0-t) [1] was 9260 ng·h/mL and the T1/2 [1] was 37.4 h. For the same compound, the “GIPR EC50 ratio” value [2] was 1.00.

Reference: patent EP4813403A1, “USE OF GLP-1R/GIPR DOUBLE-TARGET AGONIST IN PREPARING ANIMAL DRUG” (Hangzhou Zhongmeihuadong Pharmaceutical Co., Ltd., priority 2023, dated 2025)
